{
  "source": "patent US20040071687A1",
  "about": "“Adult stem cell recruitment” (priority 2002, published 2004)",
  "molecules": {"B1": {"name": "G-CSF: recombinant granulocyte colony stimulating factor (R&D Systems), s.c. daily day 0-5 (protein, UniProt P09919 31-207, looked up)", "Granulocyte …": "TPLGPASSLPQSFLLKCLEQVRKIQGDGAALQEKLVSECATYKLCHPEELVLLGHSLGIPWAPLSSCPSQALQLAGCLSQLHSGLFLYQGLLQALEGISPELGPTLDTLQLDVADFATTIWQQMEELGMAPALQPTQGAMPAFASAFQRRAGGVLVASHLQSFLEVSYRVLRHLAQP"}},
  "key": {"[1]": {"system": "MMP-9−/− and MMP-9+/+ mice", "assay": "5-FU myelosuppression: survival and hematopoietic recovery", "protocol": "Administration of 5-FU. MMP-9^−/− and MMP-9^+/+ mice were injected with the cell cycle cytotoxic agent 5-fluorouracil (5-FU) to deplete cycling hematopoietic cells. In particular, 250 mg/kg body weight 5-FU (Pharmacia & Upjohn Company) was administered intravenously (i.v.). At specified time points, mice were sacrificed. Femurs were flushed and bone marrow cells were used for cell cycle analysis or subjected to magnetic bead isolation (MACS) (Miltenyi Biotec). Lineage-negative bone marrow cells were isolated by MACS after labeling the cells with a depletion cocktail of lineage-specific monoclonal antibodies (mAbs), including CD5, CD45R, CD11b, Gr-1, TER119, 7/4 (Stem Cell Technology, Canada). Lin^− cells were MACS isolated with mAb against Sca-1. […] For cell cycle analysis whole bone marrow cells of MMP-9^−/− and MMP-9^+/+ mice were labeled with Sca-1-FITC. Lin^−Sca-1^+bone marrow cells were labeled with c-Kit-FITC. Labeled bone marrow cells and Lin^−Sca-1^+cells were fixed in ice-cold ethanol for 30 min. After RNAase treatment (Sigma, MO), cells were stained with propidium iodide (Molecular-Probes, Oregon). The DNA content of Sca-1 and Lin^−Sca-1^+c-Kit^+ cells was determined by FACS (Coulter flow cytometer). […]\nPeripheral blood analysis. Blood was collected with capillary pipettes by retro-orbital bleeding and WBC counts were determined by using a hemocytometer. […]"}, "Sca-1+ bone marrow cells": {"system": "Sca-1+ bone marrow cells", "assay": "Cell cycle analysis of bone marrow Sca-1+ cells after 5-FU", "assay_type": "in vivo, mice", "protocol": "Administration of 5-FU. MMP-9^−/− and MMP-9^+/+ mice were injected with the cell cycle cytotoxic agent 5-fluorouracil (5-FU) to deplete cycling hematopoietic cells. In particular, 250 mg/kg body weight 5-FU (Pharmacia & Upjohn Company) was administered intravenously (i.v.). At specified time points, mice were sacrificed. Femurs were flushed and bone marrow cells were used for cell cycle analysis or subjected to magnetic bead isolation (MACS) (Miltenyi Biotec). Lineage-negative bone marrow cells were isolated by MACS after labeling the cells with a depletion cocktail of lineage-specific monoclonal antibodies (mAbs), including CD5, CD45R, CD11b, Gr-1, TER119, 7/4 (Stem Cell Technology, Canada). Lin^− cells were MACS isolated with mAb against Sca-1. […] For cell cycle analysis whole bone marrow cells of MMP-9^−/− and MMP-9^+/+ mice were labeled with Sca-1-FITC. Lin^−Sca-1^+bone marrow cells were labeled with c-Kit-FITC. Labeled bone marrow cells and Lin^−Sca-1^+cells were fixed in ice-cold ethanol for 30 min. After RNAase treatment (Sigma, MO), cells were stained with propidium iodide (Molecular-Probes, Oregon). The DNA content of Sca-1 and Lin^−Sca-1^+c-Kit^+ cells was determined by FACS (Coulter flow cytometer)."}, "human CD34+ cells": {"system": "human CD34+ cells", "assay": "In vitro transmigration through reconstituted basement membranes (Matrigel transwell)", "assay_type": "cell-based", "settings": "for migration of CD34+ cells: Matrigel-coated transwell, SDF-1 100 ng/ml in lower chamber, inhibitor in both chambers (CGS 27023A 1 nM; 5-phenyl-1,10-phenanthroline 1 mM)", "protocol": "Substrate zymography. Supernatants from human MACS-isolated CD34^+ (5×10^3) cells were collected after overnight incubation in serum-free medium with/without SDF-1 (150 ng/ml R&D-Systems) or VEGF (50 ng/ml, PeproTech). MMP activity was determined by gelatin zymography (Lane et al., 2000).\nIn vitro transmigration through reconstituted basement membranes. […] CD34^+ cells were added to 8 μm pore Matrigel-coated (BD) transwell inserts (Costar, Cambridge Mass.). […] Transmigrated cells were quantified, placed in a clonogenic assay and in long-term cultures to measure the number of CAFC and LTC-IC (Jo et al., 2000)."}, "[2]": {"system": "lethally irradiated syngeneic mice", "assay": "Bone marrow repopulating assay with mobilized PBMCs", "assay_type": "in vivo", "settings": "for long-term engraftment of lethally irradiated syngeneic mice transplanted with mobilized PBMCs: PBMCs from SCID mice given AdSDF-1, AdVEGF or G-CSF, no MPI, n=12", "protocol": "Bone marrow repopulating assay. Chemo/cytokine-mobilized PBMCs from SCID mice treated with/without MPI were collected on day 7. PBMCs from G-CSF-treated MMP-9^−/− and MMP-9^+/+ mice were collected on day 5. Mobilized PBMCs (10^5) were injected into lethally irradiated syngeneic animals (9.5 Gy). Survival was monitored."}, "[3]": {"system": "white blood cells and hematopoietic progenitors (CFU-Cs)", "assay": "Mobilization of white blood cells and progenitors (peripheral blood analysis, CFU-C)", "assay_type": "in vivo, mice", "settings": "for mobilization of mature white blood cells and hematopoietic progenitors (CFU-Cs): plasma elevation in MMP-9+/+ mice, but not in MMP-9−/− mice", "protocol": "(§1) Mobilization of bone marrow-derived cells by adenovirus delivered factors. […] The vector was injected i.v. as a single dose. Recombinant G-CSF (R&D Systems, MN) was administered subcutaneously daily from day 0-5 at 50 μg/kg body weight. Recombinant murine KitL (peproTech, NJ) was injected s.c. twice a day at 100 or 200 μg/kg body weight.\nPeripheral blood analysis. Blood was collected with capillary pipettes by retro-orbital bleeding and WBC counts were determined by using a hemocytometer. Peripheral blood mononuclear cells (PBMCs) were isolated from heparinized blood after centrifugation over a discontinuous gradient using Lympholyte-M (Cedarlane, Ontario, Canada).\nProgenitor assay. Peripheral blood mononuclear cells (10^5) were plated in Iscove's modified Dulbecco's medium (IMDM) containing 1.2% methylcellulose (Fisher Scientific, NJ), 30% FBS, 5×10^−3M 2-mercaptoethanol 2 mM L-glutamine, 0.5 mM hemin (Sigma), murine KitL (20 ng/ml), human erythropoietin (6U/ml) and murine IL-3 (50 ng/ml). Colonies (>50 cells) were scored after 7 days (37° C., 5% CO2)."}, "[4]": {"system": "MS-5 murine stromal cells", "assay": "Release of sKitL from stromal cell line cultures", "assay_type": "cell-based", "settings": "MS-5 cells, serum-free medium, 24 hours", "protocol": "Stromal cell line cultures. […] Immunoassay for chemokines and cytokines. Plasma levels of SDF-1, VEGF, and sKitL were measured using commercially available ELISA (R&D Systems)."}, "[5]": {"system": "lethally irradiated syngeneic recipients", "assay": "CFU-S assay", "assay_type": "in vivo", "settings": "chemokine/cytokine-treated SCID mice given metalloproteinase inhibitor", "protocol": "CFU-S assay. Mobilized peripheral blood mononuclear cells (10^5/mouse) of chemokine-treated SCID mice were injected i.v. into lethally irradiated syngeneic recipients (9 Gy). Spleens were removed 12 days later and fixed in Bouin's solution. The number of macroscopic spleen colonies was scored."}, "[6]": {"system": "circulating endothelial progenitors (CEPs)", "assay": "Endothelial progenitor assay (CFU-EC, VEGFR2+ cells)", "assay_type": "in vivo", "settings": "wild type mice, elevated plasma levels", "protocol": "Endothelial progenitor assay. Circulating bone marrow-derived CEPs were quantified by colony forming unit-endothelial cell (CFU-EC) as previously described (Hattori et al. 2001a). Mobilized PBMCs were cultured in M199 media (GIBCO-BRL, Gaithersburg, Md.) supplemented with 20% FBS (HyClone, UT), ECGF (30 μg/ml), human FGF-basic (Sigma) and heparin. After 5 weeks of culture, adherent cells were scored for colonies (>10 cells). Endothelial colonies were identified by metabolic uptake of DiI-Acetylated-LDL (1 μg/ml; PerImmune Inc, Rockville, Md.) at 37° C. for 5 hours, and visualized fluorescence microscopy. The number of VEGFR2^+ cells was quantified by FACS using a Cy2-labeled mAb to VEGFR2 (clone DC101, ImClone, NY), (Hattori et al. 2001a)."}, "MMP-9": {"system": "MMP-9", "assay": "Immunohistochemistry for MMP-9 in bone marrow sections", "assay_type": "in vivo", "settings": "wild type mice; SDF-1 and VEGF by adenoviral vector, G-CSF recombinant", "protocol": "Immunohistochemistry. Bone marrow sections were deparaffinized, rehydrated through an alcohol series immersed in 0.1% H2O2 and blocked using an Avidin and Biotin blocking kit (Vector, Burlingame, Calif.). For MMP-9 staining, the M.O.M. immunodetection kit (Vector) was used as recommended. Sections were incubated with MMP-9 mAb (clone 7-11C, Oncogene, MA) for 30 min, washed in PBS, incubated with a biotinylated horse anti-mouse IgG and incubated for 5 min with A&B reagents (Vector). Von Willebrand Factor (vWF) immunohistochemistry was performed on deparaffinized sections, treated with 3% H2O2, incubated with 0.05% Pronase E (Sigma). Sections were stained with anti-human vWF/HRP (Dako). Sections were developed with 3,3′-diaminobenzidine substrate and counterstained with eosin and hematoxylin."}, "sKitL": {"system": "sKitL", "assay": "Plasma sKitL by ELISA after adenoviral vector or cytokine treatment", "assay_type": "in vivo", "settings": "MMP-9+/+ mice, five days after treatment", "protocol": "as §1\nImmunoassay for chemokines and cytokines. Plasma levels of SDF-1, VEGF, and sKitL were measured using commercially available ELISA (R&D Systems)."}},
  "data": [
    {"molecule": "O=c1[nH]cc(F)c(=O)[nH]1", "note": "[5-FU, 5-fluorouracil]", "values": [
      {"measurement": "survival of 5-FU-treated mice", "setting": "[1]; MMP-9+/+, mouse, in vivo, iv", "value": "all of the MMP-9^+/+ mice survived"},
      {"measurement": "death of 5-FU-treated mice", "setting": "[1]; MMP-9−/− mice, single i.v. dose, n=16", "value": 72, "unit": "%"},
      {"measurement": "total number of Sca-1+ cells in S-phase", "setting": "Sca-1+ bone marrow cells; MMP-9+/+ mice, day 6 after 5-FU", "value": "2.2±0.05 ×10^5/femur"},
      {"measurement": "total number of Sca-1+ cells in S-phase", "setting": "Sca-1+ bone marrow cells; MMP-9+/+ mice, day 10 after 5-FU", "value": "11.5±0.3 ×10^5/femur"},
      {"measurement": "total number of Sca-1+ cells in S-phase", "setting": "Sca-1+ bone marrow cells; MMP-9−/− mice, day 6 after 5-FU", "value": "1.0±0.03 ×10^5/femur"},
      {"measurement": "total number of Sca-1+ cells in S-phase", "setting": "Sca-1+ bone marrow cells; MMP-9−/− mice, day 10 after 5-FU", "value": "2.1±0.04 ×10^5/femur"}
    ]},
    {"molecule": "c1ccc(-c2cc3cccnc3c3ncccc23)cc1", "note": "[5-phenyl-1,10-phenanthroline]", "values": [
      {"measurement": "migration of CD34+ cells", "setting": "human CD34+ cells", "value": "completely blocked"}
    ]},
    {"molecule": "COc1ccc(S(=O)(=O)N(Cc2cccnc2)[C@@H](C(=O)NO)C(C)C)cc1", "note": "[CGS 27023A]", "values": [
      {"measurement": "time within which all recipient mice died", "setting": "[2]; recipients of PBMCs from MPI-treated mice", "value": "≤ 19", "unit": "days"},
      {"measurement": "white blood cell counts and chemokine-induced mobilization", "setting": "[3]; MMP-9 competent mice (data not shown)", "value": "decreased white blood cell counts and blocked chemokine-induced mobilization"},
      {"measurement": "release of sKitL", "setting": "[4]", "value": "blocked"},
      {"measurement": "migration of CD34+ cells", "setting": "human CD34+ cells", "value": "completely blocked"},
      {"measurement": "mobilization of hematopoietic cells with short-term repopulating potential (CFU-S)", "setting": "[5]", "value": "completely blocked"}
    ]},
    {"molecule": "VEGF", "values": [
      {"measurement": "long-term engraftment of lethally irradiated syngeneic mice transplanted with mobilized PBMCs", "setting": "[2]", "value": 40, "unit": "%"},
      {"measurement": "mobilization of circulating endothelial progenitors (CFU-EC, VEGFR2)", "setting": "[6]", "value": "increased the mobilization of circulating endothelial progenitors"},
      {"measurement": "mobilization of mature white blood cells and hematopoietic progenitors (CFU-Cs)", "setting": "[3]", "value": "mobilized mature white blood cells"},
      {"measurement": "immunoreactive MMP-9 in bone marrow stromal and hematopoietic cells", "setting": "MMP-9", "value": "increased immunoreactive MMP-9"},
      {"measurement": "plasma sKitL levels compared to untreated animals", "setting": "sKitL", "value": "increased plasma sKitL levels"},
      {"measurement": "release of pro-MMP-9 and migration of human CD34+ progenitor and stem cells", "setting": "human CD34+ cells; transwell migration assay, chemoattractant", "value": "stimulate the release of pro-MMP-9 and induce migration"}
    ]},
    {"molecule": "B1", "values": [
      {"measurement": "survival of transplanted recipients", "setting": "[2]; MMP-9+/+ mice, PBMCs obtained day 5, n=8/group", "value": 100, "unit": "%"},
      {"measurement": "day by which all mice died", "setting": "[2]; MMP-9−/− mice treated with G-CSF, n=8/group", "value": "~18", "unit": "days"},
      {"measurement": "long-term engraftment of lethally irradiated syngeneic mice transplanted with mobilized PBMCs", "setting": "[2]", "value": 80, "unit": "%"},
      {"measurement": "mobilization of mature white blood cells and hematopoietic progenitors (CFU-Cs)", "setting": "[3]", "value": "mobilized mature white blood cells"},
      {"measurement": "immunoreactive MMP-9 in bone marrow stromal and hematopoietic cells", "setting": "MMP-9", "value": "increased immunoreactive MMP-9"},
      {"measurement": "plasma sKitL levels compared to untreated animals", "setting": "sKitL", "value": "increased plasma sKitL levels"}
    ]}
  ]
}
